US20230346969A1, “INTERMEDIATE FOR PREPARING ANTIBODY-DRUG CONJUGATE (ADC), PREPARATION METHOD THEREFOR, AND USE THEREOF” (priority 2020, published 2023)
Read-outs that look alike come from different tables or passages of the source.

Key:
[1] = Dose tolerability, single intravenous dose acute toxicity; type: in vivo; details: single intravenous dose 60 mg/kg, BALB/c mice
Procedure: Dose tolerability assay was performed in BALB/c mice (3 mice per dose). The drug was given in a single intravenous dose. The injection doses of hRS7-VK-PTX were 60, 80 and 100 mg/kg, and the injection doses of hRS7-VK-MMAE were 60 and 80 mg/kg, respectively. Toxicity was assessed by observing mouse behavior, weight loss and survival. The weight change rate (%) was calculated as: (body weight - body weight before treatment)/(body weight before treatment) × 100%.
The safety of relatively high doses of hRS7-VK-PTX in BALB/c mice was studied by an acute toxicity experiment with single intravenous administration in mice.

[2] = tested on: mixture of Trop-2-positive tumor cells BXPC-3 and Trop-2-negative tumor cells NCIH1688; experiment: Bystander effect: transplanted tumor from mixture of BXPC-3 and NCIH1688 cells; type: in vivo, BALB/c-nu/nu mice; details: 3 mg/kg, transplanted tumors heterogeneously expressing Trop-2
Text: (§1) Five-week-old female athymic BALB/c nu/nu mice were purchased from Charles River Company (Shanghai, China), and mice were randomly divided into 5-6 mice/group. Animal handling and procedures were approved and performed in accordance with the requirements of the Institutional Animal Care and Use Committee (IACUC) of Shanghai Institute of Materia Medica, Chinese Academy of Sciences. All models were inoculated subcutaneously on the side of mice. BXPC-3, HCC1806 and NCIH1688 cells were established by injecting and homogenizing 5 × 10^6 cells in Matrigel matrix. COLO205 cells were established by injecting and suspending 1 × 10^7 cells in Matrigel matrix. After the tumor volume reached about 200 mm^3, the tumor-bearing mice were randomly divided into treatment groups and a control group according to the tumor volume. Each drug was administered intraperitoneally. […] The percentage of inhibition was calculated by the following formula: (1-average tumor volume of the treatment group/average tumor volume of the control group)×100%. Toxicity of the different treatment groups was assessed by monitoring weight loss.
(§2) A mixture of Trop-2-positive tumor cells BXPC-3 and Trop-2-negative tumor cells NCIH1688 or NCIH1688 cells alone were inoculated into BALB/c-nu/nu mice (FIG. 1e, right panel), and the “bystander effect” of hRS7-VK-PTX was detected in a mouse transplanted tumor model.

[3] = Adverse effects and weight loss of mice treated in the efficacy models; type: in vivo, BALB/c nu/nu mice
Text: Five-week-old female athymic BALB/c nu/nu mice were purchased from Charles River Company (Shanghai, China), and mice were randomly divided into 5-6 mice/group. Animal handling and procedures were approved and performed in accordance with the requirements of the Institutional Animal Care and Use Committee (IACUC) of Shanghai Institute of Materia Medica, Chinese Academy of Sciences. All models were inoculated subcutaneously on the side of mice. BXPC-3, HCC1806 and NCIH1688 cells were established by injecting and homogenizing 5 × 10^6 cells in Matrigel matrix. COLO205 cells were established by injecting and suspending 1 × 10^7 cells in Matrigel matrix. After the tumor volume reached about 200 mm^3, the tumor-bearing mice were randomly divided into treatment groups and a control group according to the tumor volume. Each drug was administered intraperitoneally. Mice were injected at doses of 3 or 10 mg/kg (10 mL/kg). Tumor volume was defined as length × ½ × width × width. The percentage of inhibition was calculated by the following formula: (1-average tumor volume of the treatment group/average tumor volume of the control group)×100%. Toxicity of the different treatment groups was assessed by monitoring weight loss.

NCIH1688 cells = experiment: Transplanted tumor from NCIH1688 cells alone (not expressing Trop-2); type: in vivo, BALB/c-nu/nu mice; details: hRS7-VK-PTX 10 mg/kg, hRS7-VK-MMAE 3 mg/kg
Text: as §1, §2

MDA-MB-468 = experiment: Cell viability assay (CCK-8); type: cell-based; details: CCK-8, 96 hours, read-out: IC50 (95% Cl)
Procedure: (§3) Cell viability was determined using Cell Counting Kit 8 (CCK-8). Cells were seeded into 96-well plates at 3000-10000 cells/well. After incubation overnight, drugs were added at different concentrations. Plates were incubated in a 5% CO2, 37° C. humidified chamber for 96 hours. CCK8 reagent was added thereto and the plates were placed back to the incubator until the absorbance at 450 nm of untreated control cells was greater than 1.0. Growth inhibition was measured as the percent growth relative to untreated cells. Dose response curve was generated from the mean values of two or three tests, and IC50 values were calculated using Prism GraphPad software.
(§4) The anti-tumor efficacy of different payloads on different tumor cell lines was detected by CCK-8, and the results are shown in FIG. 5.

CFPAC-1 = experiment: Cell viability assay (CCK-8); type: cell-based; details: CCK-8, 96 hours, read-out: IC50 (95% Cl)
Procedure: as §3, §4

SK-MES-1 = experiment: Cell viability assay (CCK-8); type: cell-based; details: CCK-8, 96 hours, Lung, read-out: IC50 (95% Cl)
Procedure: as §3, §4

HT29 = experiment: Cell viability assay (CCK-8); type: cell-based; details: CCK-8, 96 hours, Colon, read-out: IC50 (95% Cl)
Procedure: as §3, §4

COLO205 = experiment: Cell viability assay (CCK-8); type: cell-based; details: CCK-8, 96 hours, read-out: IC50 (95% Cl)
Procedure: as §3, §4

Capan-1 = experiment: Cell viability assay (CCK-8); type: cell-based; details: CCK-8, 96 hours, Pancreas, read-out: IC50 (95% Cl)
Procedure: as §3, §4

SCLC-21H = experiment: Cell viability assay (CCK-8); type: cell-based; details: CCK-8, 96 hours, read-out: IC50 (95% Cl)
Procedure: as §3, §4

NCIH2452 = experiment: Cell viability assay (CCK-8); type: cell-based; details: ADCs; CCK-8, 96 hours; cell 'HOC2401' [sic], Lung; read-out: IC50 (95% Cl)
Procedure: as §3, §4

HCC1806 = experiment: Cell viability assay (CCK-8); type: cell-based; details: CCK-8, 96 hours, Mamary, read-out: IC50 (95% Cl)
Procedure: as §3, §4

NCI-H1688 = experiment: Cell viability assay (CCK-8); type: cell-based; details: CCK-8, 96 hours, Lung, read-out: IC50 (95% Cl)
Procedure: as §3, §4

SKBR3 = experiment: Cell viability assay (CCK-8); type: cell-based; details: CCK-8, 96 hours, read-out: IC50 (95% Cl)
Procedure: as §3, §4

MDA-MB-231 = experiment: Cell viability assay (CCK-8); type: cell-based; details: CCK-8, 96 hours, Mamary, read-out: IC50 (95% Cl)
Procedure: as §3, §4

BXPC-3 = experiment: Cell viability assay (CCK-8); type: cell-based; details: CCK-8, 96 hours, Pancreas, read-out: IC50 (95% Cl)
Procedure: as §3, §4

SKBR3 cells = experiment: Endocytosis and intracellular localization of ADC by confocal microscopy; type: cell-based; details: 5 µg/mL, 37° C., 45 or 90 min
Procedure: SKBR3 cells were incubated with 5 µg/mL of hRS7-VK-PTX or hRS7-VK-SN38 in a 24-well plate (1 × 10^4 cells/well) in a 5% CO2, 37° C. incubator for 45 or 90 min. Cells were washed once with PBS, fixed and permeabilized. After washing, cells were stained with 488 goat anti-human IgG (H&L) or 555 anti-rabbit IgG F(ab′)2 fragment. Nuclear DNA was stained with 4′,6-dimidyl-2-phenylindole (DAPI). Immunofluorescence was recorded with an Olympus BK71 confocal microscope.
SKBR3 cells were incubated with ADC molecules at 37° C. for 45 or 90 min. Unbound ADC was removed by washing cells in a culture medium, then the cells were fixed and permeabilized. The marker proteins LAMP-1, GM130 and clathrin were detected with their respective antibodies and a secondary antibody conjugated to Alex®555 (red). Anti-Trop-2 ADC was detected with DyLight®488-conjugated secondary antibody (green). DAPI was used to stain nuclear DNA (blue).

[4] = tested on: tumor cell lines with different expression levels of Trop-2; experiment: Cell viability assay (CCK-8), comparison across the cell panel; type: cell-based; details: tumor cell lines with different expression levels of Trop-2
Procedure: as §3, §4

[5] = hRS7-VK-MMAE 3 mg/kg, hRS7-VK-SN38 3 or 10 mg/kg, PTX alone
[6] = ADCs, cell CPAC-1 [sic], Pancreas
[7] = ADCs, cell printed 'COXC28', Colon

Compound	adverse effects or weight loss in treated mice, relative to hRS7-VK-PTX (none) [3, 5]	IC50 (MDA-MB-468; ADCs, SRM-M9-409, Mammary) [nM]	IC50 (CFPAC-1; [6]) [nM]	IC50 (SK-MES-1; ADCs, cell 'SK-WSS-7' [sic]) [nM]	IC50 (HT29; ADCs, cell '3128' [sic]) [nM]	IC50 (COLO205; [7]) [nM]	IC50 (Capan-1; ADCs, Cxoo-1 [sic]) [nM]	IC50 (SCLC-21H; ADCs, SRM-C-21H) [nM]	IC50 (NCIH2452) [nM]	IC50 (HCC1806; ADCs, 'HOC1906' [sic]) [nM]	IC50 (NCI-H1688; ADCs, cell 'HCl-11685' [sic]) [nM]	IC50 (SKBR3; ADCs, 'SKERS' [sic], Mammary) [nM]	IC50 (MDA-MB-231; ADCs, cell 'SRM-K9-231' [sic]) [nM]	IC50 (BXPC-3; ADCs, cell RMCA [sic]) [nM]	further results
hRS7-VK-MMAE	stark contrast	0.0645	> 300	> 325	~250	> 300	> 300	0.0324	~1.21	0.0174	~3.76	~2.24	> 300	0.0124	adverse reactions [1]: severe adverse reactions; body weight loss [1]: more than 15%; tumor growth inhibition index (TGI) [2]: 91.7%; killing effect on transplanted tumors not expressing Trop-2 (NCIH1688 cells): had a killing effect
hRS7-VK-SN38	–	1.37	3.14	80.5	5.59	16.8	12.4	16.3	10.3	0.879	> 300	1.45	3.03	1.53	adverse effects or weight loss in treated mice, relative to hRS7-VK-PTX (none) ([3]; mouse, in vivo): stark contrast; internalization and intracellular localization (SKBR3 cells): did not undergo significant internalization
CC(=O)O[C@H]1C(=O)[C@@]2(C)[C@H]([C@H](OC(=O)c3ccccc3)[C@]3(O)C[C@H](OC(=O)[C@H](O)[C@@H](NC(=O)c4ccccc4)c4ccccc4)C(C)=C1C3(C)C)[C@]1(OC(C)=O)CO[C@@H]1C[C@@H]2O [PTX, Paclitaxel]	stark contrast	–	–	–	–	–	–	–	–	–	–	–	–	–	cytotoxicity of individual payload molecules [4]: weaker than that of MMAE, but close to that of SN38; IC50 (MDA-MB-468; Homo sapiens, MDA-MB-468, free payloads, cell printed 'MOA-413-468', Mamary): 7.22 nM; IC50 (CFPAC-1; Homo sapiens, free payloads, cell CFPAC-1, Pancreas): > 300 nM; IC50 (SK-MES-1; Homo sapiens, SK-MES-1, free payloads, cell 'SK-M55-1' [sic]): 53.1 nM; IC50 (HT29; Homo sapiens, HT-29, free payloads, cell 'H123' [sic]): > 300 nM; IC50 (COLO205; Homo sapiens, COLO 205, free payloads, cell 'CCAO205' [sic], Colen): > 300 nM; IC50 (Capan-1; Homo sapiens, CAPAN-1, free payloads, cell 'Cepes-3' [sic]): 7.43 nM; IC50 (SCLC-21H; Homo sapiens, SCLC-21H, free payloads, cell 'ECLC 214' [sic], Small cell lung): ~32 nM; IC50 (HCC1806; Homo sapiens, HCC1806, free payloads, 'HCCHOI' [sic]): 2.46 nM; IC50 (NCI-H1688; NCI-H1688, free payloads, cell 'NCl-H1828' [sic]): 37.3 nM; IC50 (SKBR3; Homo sapiens, SK-BR-3, free payloads, cell 'SK8RS' [sic], Mamary): ~852 nM; IC50 (MDA-MB-231; Homo sapiens, MDA-MB-231, free payloads, 'MCP-83-21' [sic]): > 300 nM; IC50 (BXPC-3; Homo sapiens, BXPC-3, free payloads, cell 'BKFC-Y' [sic]): 0.468 nM
